Test results as given in patent publication US10934276B2, “Positive allosteric modulators of the muscarinic acetylcholine receptor M4” (Vanderbilt University, priority 2016, dated 2021).

Biological target: T1, Human M4 (Homo sapiens, UniProt P08173)
T1 construct: expressed in transfected cells; host or cells: CHO-K1 (ATCC), stably expressing hM4 and Gqi5
T1 sequence (P08173 1-479): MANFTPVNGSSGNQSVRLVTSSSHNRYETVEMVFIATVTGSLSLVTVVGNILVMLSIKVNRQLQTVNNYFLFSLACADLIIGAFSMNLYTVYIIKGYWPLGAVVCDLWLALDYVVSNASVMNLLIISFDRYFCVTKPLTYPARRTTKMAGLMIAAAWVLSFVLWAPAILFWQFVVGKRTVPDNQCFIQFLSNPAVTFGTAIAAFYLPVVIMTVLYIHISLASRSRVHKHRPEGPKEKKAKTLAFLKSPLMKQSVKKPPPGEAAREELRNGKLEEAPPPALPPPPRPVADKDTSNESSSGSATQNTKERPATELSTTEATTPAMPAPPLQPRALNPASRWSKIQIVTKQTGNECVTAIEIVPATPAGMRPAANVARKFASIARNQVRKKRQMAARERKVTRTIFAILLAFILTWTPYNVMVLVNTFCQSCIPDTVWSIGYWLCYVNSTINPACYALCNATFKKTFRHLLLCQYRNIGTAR
Experiment: mAChR M4 cell-based functional assay (calcium flux, potentiation of EC20 acetylcholine response in CHO-K1 hM4-Gqi5 cells)
Details: for Emax at 30 µM: CHO-K1, % ACh maximum at 30 μM, human M4; for EC50: positive allosteric modulator mode, EC20 acetylcholine, CHO-K1 cells with human M4 and Gqi5
Experimental: Human M4 cDNA, along with the chimeric G protein Gqi5, were transfected into Chinese hamster ovary (CHO—K1) cells purchased from the American Type Culture Collection using Lipofectamine2000. hM4-Gqi5 cells were grown in Ham's F-12 medium containing 10% heat-inactivated fetal bovine serum (FBS), 20 mM HEPES, 50 μg/mL G418 sulfate, and 500 μg/mL Hygromycin B. rM4-Gqi5 cells were grown in DMEM containing 10% heat-inactivated FBS, 20 mM HEPES, 400 μg/mL G418 sulfate, and 500 μg/mL Hygromycin B.
For high throughput measurement of agonist-evoked increases in intracellular calcium, CHO—K1 cells stably expressing muscarinic receptors were plated in growth medium lacking G418 and hygromycin at 15,000 cells/20 μL/well in Greiner 384-well black-walled, tissue culture (TC)-treated, clear-bottom plates (VWR). Cells were incubated overnight at 37° C. and 5% CO2. The next day, cells were washed using an ELX 405 (BioTek) with assay buffer; the final volume was then aspirated to 20 μL. Next, 20 μL of a 2.3 μM stock of Fluo-4/acetoxymethyl ester (Invitrogen, Carlsbad, Calif.), prepared as a 2.3 mM stock in DMSO and mixed in a 1:1 ratio with 10% (w/v) Pluronic F-127 and diluted in assay buffer, was added to the wells and the cell plates were incubated for 50 min at 37° C. and 5% CO2. Dye was removed by washing with the ELX 405 and the final volume was aspirated to 20 μL. Compound master plates were formatted in an 11 point concentration-response curve (CRC) format (1:3 dilutions) in 100% DMSO with a starting concentration of 10 mM using a BRAVO liquid handler (Agilent). Test compound CRCs were then transferred to daughter plates (240 nL) using the Echo acoustic plate reformatter (Labcyte, Sunnyvale, Calif.) and then diluted into assay buffer (40 μL) to a 2× stock using a Thermo Fisher Combi (Thermo Fisher Scientific, Waltham, Mass.).
Calcium flux was measured using the Functional Drug Screening System (FDSS) 6000 or 7000 (Hamamatsu Corporation, Tokyo, Japan) as an increase in the fluorescent static ratio. Compounds were applied to cells (20 μL, 2×) using the automated system of the FDSS at 2-4 seconds into the protocol and the data were collected at 1 Hz. At 144 seconds, 10 μL of an EC20 concentration of the muscarinic receptor agonist acetylcholine was added (5×), followed by the addition of 12 μL of an EC80 concentration of acetylcholine at the 230 second time point (5×). Agonist activity was analyzed as a concentration-dependent increase in calcium mobilization upon compound addition. Positive allosteric modulator activity was analyzed as a concentration-dependent increase in the EC20 acetylcholine response. With the acetylcholine EC20 set as baseline, the test compound EC50 is determined as the concentration that produces an increase above baseline of 50% of the maximum increase in acetylcholine response elicted by the test compound. Antagonist activity was analyzed as a concentration-dependent decrease in the EC80 acetylcholine response. Concentration-response curves were generated using a four-parameter logistical equation in XLFit curve fitting software (IDBS, Bridgewater, N.J.) for Excel (Microsoft, Redmond, Wash.) or Prism (GraphPad Software, Inc., San Diego, Calif.).
Compounds were synthesized as described above. Activity (EC50 and Emax) was determined in the mAChR M4 cell-based functional assay as described above and the data are shown in Table 3. The compound numbers correspond to the compound numbers used in Examples 2-4 and Tables 1 and 2.

Row | Compound | Emax at 30 µM [%] | EC50 [nM]
1 | Cc1nnc2ccc(C(=O)NC3CN(c4ncc(C#N)cc4Cl)C3)cc2c1C [Compound 29, N-[1-(3-chloro-5-cyano-2-pyridyl)azetidin-3-yl]-3,4-dimethyl-cinnoline-6-carboxamide] | 71.6 | 300
2 | Cc1nnc2ccc(C(=O)NC3CN(c4ncc(C(F)(F)F)cn4)C3)cc2c1C [Compound 17, 3,4-dimethyl-N-[1-[5-(trifluoromethyl)pyrimidin-2-yl]azetidin-3-yl]cinnoline-6-carboxamide] | 76.7 | > 10000
3 | Cc1nnc2ccc(C(=O)NC3CN(c4cnc(C5CC5)cn4)C3)cc2c1C [Compound 22, N-[1-(5-cyclopropylpyrazin-2-yl)azetidin-3-yl]-3,4-dimethyl-cinnoline-6-carboxamide] | 79.9 | 2510
4 | Cc1cc(C)c2cc(C(=O)NCc3ccncc3)ccc2n1 [Compound 6, 2,4-dimethyl-N-(4-pyridylmethyl)quinoline-6-carboxamide] | 26.4 | > 10000
5 | Cc1nnc2ccc(C(=O)NC3CN(c4ccc(F)c(F)c4)C3)cc2c1C [Compound 18, N-[1-(3,4-difluorophenyl)azetidin-3-yl]-3,4-dimethyl-cinnoline-6-carboxamide] | 81.7 | 740
6 | Cc1nnc2ccc(C(=O)NC3CN(c4ncc(C5CC5)cc4Cl)C3)cc2c1C [Compound 27, N-[1-(3-chloro-5-cyclopropyl-2-pyridyl)azetidin-3-yl]-3,4-dimethyl-cinnoline-6-carboxamide] | 77.2 | 1390
7 | Cc1nnc2ccc(C(=O)NC3CC3)cc2c1C [Compound 39, N-cyclopropyl-3,4-dimethyl-cinnoline-6-carboxamide] | 82.6 | > 10000
8 | Cc1nnc2ccc(C(=O)NC3CN(c4ccc(F)cn4)C3)cc2c1C [Compound 24, N-[1-(5-fluoro-2-pyridyl)azetidin-3-yl]-3,4-dimethyl-cinnoline-6-carboxamide] | 79.2 | > 10000
9 | Cc1nnc2ccc(C(=O)NC3CN(c4ccc(C#N)cn4)C3)cc2c1C [Compound 25, N-[1-(5-cyano-2-pyridyl)azetidin-3-yl]-3,4-dimethyl-cinnoline-6-carboxamide] | 80.6 | 1030
10 | Cc1cc(C)c2cc(C(=O)NC3CN(c4ccnc(OC(F)F)c4)C3)ccc2n1 [Compound 10, N-[1-[2-(difluoromethoxy)-4-pyridyl]azetidin-3-yl]-2,4-dimethyl-quinoline-6-carboxamide] | 55.5 | 1400
11 | Cc1nnc2ccc(C(=O)NC3CN(c4ncc(C(F)(F)F)cc4Cl)C3)cc2c1C [Compound 28, N-[1-[3-chloro-5-(trifluoromethyl)-2-pyridyl]azetidin-3-yl]-3,4-dimethyl-cinnoline-6-carboxamide] | 75.7 | 2630
12 | Cc1nnc2ccc(C(=O)NC3CN(c4ncccc4F)C3)cc2c1C [Compound 34, N-[1-(3-fluoro-2-pyridyl)azetidin-3-yl]-3,4-dimethyl-cinnoline-6-carboxamide] | 83.4 | 1220
13 | COc1cc(N2CC(NC(=O)c3ccc4nc(C)cc(C)c4c3)C2)c(Cl)cn1 [Compound 2, N-[1-(5-chloro-2-methoxy-4-pyridyl)azetidin-3-yl]-2,4-dimethyl-quinoline-6-carboxamide] | 39.3 | 540
14 | COc1ccc(CNC(=O)c2ccc3nc(C)cc(C)c3c2)cc1F [Compound 1, N-[(3-fluoro-4-methoxy-phenyl)methyl]-2,4-dimethyl-quinoline-6-carboxamide] | 53.1 | > 10000
15 | Cc1nnc2ccc(C(=O)NCc3ccc(C(C)(C)O)cc3)cc2c1C [Compound 16, N-[[4-(1-hydroxy-1-methyl-ethyl)phenyl]methyl]-3,4-dimethyl-cinnoline-6-carboxamide] | 71.2 | > 10000
16 | Cc1cc(C)c2cc(C(=O)NC3CN(c4ccnc(F)c4F)C3)ccc2n1 [Compound 12, N-[1-(2,3-difluoro-4-pyridyl)azetidin-3-yl]-2,4-dimethyl-quinoline-6-carboxamide] | 65.4 | 170
17 | COc1ccc(CNC(=O)c2ccc3nnc(C)c(C)c3c2)cc1F [Compound 15, N-[(3-fluoro-4-methoxy-phenyl)methyl]-3,4-dimethyl-cinnoline-6-carboxamide] | 72.3 | 1890
18 | Cc1nnc2ccc(C(=O)NC3CC(F)C3)cc2c1C (stereo not shown) [Compound 40, N-(3-fluorocyclobutyl)-3,4-dimethyl-cinnoline-6-carboxamide] | 59.3 | > 10000
19 | Cc1cc(C)c2cc(C(=O)NC3CN(c4cc(Cl)nc(Cl)c4)C3)ccc2n1 [Compound 9, N-[1-(2,6-dichloro-4-pyridyl)azetidin-3-yl]-2,4-dimethyl-quinoline-6-carboxamide] | 26.1 | 370
20 | Cc1nnc2ccc(C(=O)NC3CN(c4cccc(C(F)(F)F)n4)C3)cc2c1C [Compound 38, 3,4-dimethyl-N-[1-[6-(trifluoromethyl)-2-pyridyl]azetidin-3-yl]cinnoline-6-carboxamide] | 64.2 | 3360
21 | Cc1cc(C)c2cc(C(=O)NC3CN(c4nccc(Br)c4F)C3)ccc2n1 [Compound 13, N-[1-(4-bromo-3-fluoro-2-pyridyl)azetidin-3-yl]-2,4-dimethyl-quinoline-6-carboxamide] | 59.5 | 1600
22 | Cc1cc(C)c2cc(C(=O)NC3CN(c4cc(Cl)ncc4Cl)C3)ccc2n1 [Compound 5, N-[1-(2,5-dichloro-4-pyridyl)azetidin-3-yl]-2,4-dimethyl-quinoline-6-carboxamide] | 52.5 | 190
23 | Cc1nnc2ccc(C(=O)NC3CN(c4ccc(OC(F)F)nc4)C3)cc2c1C [Compound 31, N-[1-[6-(difluoromethoxy)-3-pyridyl]azetidin-3-yl]-3,4-dimethyl-cinnoline-6-carboxamide] | 80.8 | 1460
24 | Cc1nnc2ccc(C(=O)NC3CN(c4ccnc(C(F)(F)F)c4)C3)cc2c1C [Compound 37, 3,4-dimethyl-N-[1-[2-(trifluoromethyl)-4-pyridyl]azetidin-3-yl]cinnoline-6-carboxamide] | 88 | 750
25 | Cc1cc(C)c2cc(C(=O)NC3CN(c4ncc(OC(C)C)cn4)C3)ccc2n1 [Compound 4, N-[1-(5-isopropoxypyrimidin-2-yl)azetidin-3-yl]-2,4-dimethyl-quinoline-6-carboxamide] | 49.3 | 5300
26 | Cc1nnc2ccc(C(=O)NC3CN(c4ncc(OC(C)C)cn4)C3)cc2c1C [Compound 20, N-[1-(5-isopropoxypyrimidin-2-yl)azetidin-3-yl]-3,4-dimethyl-cinnoline-6-carboxamide] | 87.8 | 3200
